{"source": "patent US9387135B2", "about": "“Absorbent article” (UNICHARM CORPORATION, priority 2012, dated 2016)", "key": {"[1]": {"assay": "Surface tension of blood containing blood modifying agent, pendant drop method", "details": "0.10 mass % in sheep defibrinated blood, 35 ° C.", "protocol": "The surface tension of blood containing a blood modifying agent was measured by the pendant drop method, using a Drop Master500 contact angle meter by Kyowa Interface Science Co., Ltd. The surface tension was measured after adding a prescribed amount of blood modifying agent to sheep defibrinated blood, and thoroughly shaking. The measurement was accomplished automatically with a device, and the surface tension γ was determined by the following formula (see FIG. 13). γ=g×ρ×(de)^2×1/H The density ρ was measured at the temperatures listed in Table 5, according to JIS K 2249-1995, “Density test methods and density/mass/volume conversion tables”, “5. Vibrating density test method”. The measurement was accomplished using a DA-505 by Kyoto Electronics Co., Ltd."}, "[2]": {"excerpt": "The term “solubility” used herein in regard to water solubility includes cases where the sample completely dissolves in deionized water to form a homogeneous mixture, and cases where the sample is completely emulsified. Here, “completely” means that no mass of the sample remains in the deionized water."}}, "data": [{"compound": "CCCCCCCCCCCCOC(=O)CCCCCCCCCCC", "note": "[ELECTOL WE20, Ester of dodecanoic acid (C12) and dodecyl alcohol (C12)]", "values": [{"measurement": "Surface tension", "setting": "[1]", "result": 58.8, "unit": "mN/m"}]}, {"compound": "CCCCCCCC(=O)OCC(COC(=O)CCCCCCC)OC(=O)CCCCCCC", "note": "[PANACET 800]", "values": [{"measurement": "Water solubility", "setting": "[2]", "result": "<0.05", "unit": "g"}]}]}
